Like-named read-outs stand apart in the source and are kept apart here. Positions of bridges follow the written chain, without caps; N, C: chain ends. Non-standard residues stand in square brackets, D forms with d. Residues, ends and D or L forms follow the SMILES beside them. Trp(1-Me) = Cn1cc(C[C@H](N)C(=O)O)c2ccccc21

Common to all, as to assay: cell-based
The target of one assay is hNav1.7 (Homo sapiens, UniProt Q15858). Format: cell-based.
The next assay addresses hNav1.5 (Homo sapiens, UniProt Q14524). The settings on record: IonWorks Quattro, read-out: IWQ Use Nav1.5. On the technique in general: Patch clamp records ionic current or voltage across a cell membrane.
In another assay the target is hNav1.3 (Homo sapiens, UniProt Q9NY46). The settings on record: IonWorks Quattro, read-out: IWQ Use Nav1.3.
Where [1] appears, read: clamped to −110 mV, depolarized to −10 mV, 5 min after compound, n=2.
The mark [2] stands for this setting: IonWorks Quattro, use-dependent block, hNav1.7, read-out: IWQ Use Nav1.7.

Sequence of hNav1.5 (Q14524 whole entry, looked up): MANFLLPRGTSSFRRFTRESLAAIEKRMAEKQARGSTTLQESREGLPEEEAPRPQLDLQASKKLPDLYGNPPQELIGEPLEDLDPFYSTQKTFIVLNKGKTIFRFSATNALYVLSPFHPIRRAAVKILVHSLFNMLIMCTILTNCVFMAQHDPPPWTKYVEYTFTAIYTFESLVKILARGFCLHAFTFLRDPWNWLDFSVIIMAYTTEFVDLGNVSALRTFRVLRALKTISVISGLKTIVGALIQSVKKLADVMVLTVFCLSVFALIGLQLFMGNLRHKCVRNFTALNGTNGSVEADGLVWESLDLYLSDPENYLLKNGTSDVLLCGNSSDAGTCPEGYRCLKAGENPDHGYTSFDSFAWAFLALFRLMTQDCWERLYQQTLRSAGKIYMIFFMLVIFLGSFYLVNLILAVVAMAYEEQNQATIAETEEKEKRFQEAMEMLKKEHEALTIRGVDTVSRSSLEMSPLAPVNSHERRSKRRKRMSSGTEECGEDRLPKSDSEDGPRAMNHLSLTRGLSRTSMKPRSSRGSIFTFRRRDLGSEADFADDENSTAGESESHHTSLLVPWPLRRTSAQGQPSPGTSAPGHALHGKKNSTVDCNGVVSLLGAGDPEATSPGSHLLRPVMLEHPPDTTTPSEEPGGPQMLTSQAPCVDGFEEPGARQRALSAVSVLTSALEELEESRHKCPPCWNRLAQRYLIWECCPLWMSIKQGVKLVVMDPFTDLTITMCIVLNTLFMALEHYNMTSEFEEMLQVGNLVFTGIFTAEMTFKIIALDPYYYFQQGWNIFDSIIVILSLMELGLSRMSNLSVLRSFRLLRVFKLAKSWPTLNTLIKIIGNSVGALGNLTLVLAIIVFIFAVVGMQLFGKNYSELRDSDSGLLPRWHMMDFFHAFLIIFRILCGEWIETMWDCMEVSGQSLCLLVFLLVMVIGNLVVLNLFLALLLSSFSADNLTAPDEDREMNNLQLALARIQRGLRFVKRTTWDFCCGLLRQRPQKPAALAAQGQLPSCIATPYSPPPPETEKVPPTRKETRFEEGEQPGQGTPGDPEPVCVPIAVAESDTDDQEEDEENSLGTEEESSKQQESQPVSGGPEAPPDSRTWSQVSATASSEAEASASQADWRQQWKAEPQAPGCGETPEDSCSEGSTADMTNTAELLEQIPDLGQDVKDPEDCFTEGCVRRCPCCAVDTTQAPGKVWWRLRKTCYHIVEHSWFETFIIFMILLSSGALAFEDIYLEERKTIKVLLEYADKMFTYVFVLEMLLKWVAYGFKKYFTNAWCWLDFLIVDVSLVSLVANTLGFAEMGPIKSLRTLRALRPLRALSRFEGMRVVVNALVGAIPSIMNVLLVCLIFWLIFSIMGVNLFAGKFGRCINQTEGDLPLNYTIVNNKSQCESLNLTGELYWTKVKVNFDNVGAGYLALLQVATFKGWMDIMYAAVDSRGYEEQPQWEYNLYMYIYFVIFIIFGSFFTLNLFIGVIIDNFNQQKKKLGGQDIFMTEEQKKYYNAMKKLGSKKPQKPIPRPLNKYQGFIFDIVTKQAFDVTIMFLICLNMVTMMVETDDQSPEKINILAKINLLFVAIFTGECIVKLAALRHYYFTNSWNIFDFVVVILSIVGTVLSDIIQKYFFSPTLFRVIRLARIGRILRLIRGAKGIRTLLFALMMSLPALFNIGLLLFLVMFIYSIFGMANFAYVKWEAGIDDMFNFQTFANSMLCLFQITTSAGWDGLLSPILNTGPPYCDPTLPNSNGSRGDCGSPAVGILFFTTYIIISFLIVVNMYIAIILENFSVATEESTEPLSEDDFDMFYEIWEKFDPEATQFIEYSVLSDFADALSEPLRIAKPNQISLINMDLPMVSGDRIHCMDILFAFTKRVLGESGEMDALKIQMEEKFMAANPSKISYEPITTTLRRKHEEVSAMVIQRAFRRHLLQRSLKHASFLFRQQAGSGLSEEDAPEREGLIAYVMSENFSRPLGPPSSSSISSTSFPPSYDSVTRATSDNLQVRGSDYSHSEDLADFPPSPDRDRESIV
Sequence of hNav1.7 (Q15858 whole entry, looked up): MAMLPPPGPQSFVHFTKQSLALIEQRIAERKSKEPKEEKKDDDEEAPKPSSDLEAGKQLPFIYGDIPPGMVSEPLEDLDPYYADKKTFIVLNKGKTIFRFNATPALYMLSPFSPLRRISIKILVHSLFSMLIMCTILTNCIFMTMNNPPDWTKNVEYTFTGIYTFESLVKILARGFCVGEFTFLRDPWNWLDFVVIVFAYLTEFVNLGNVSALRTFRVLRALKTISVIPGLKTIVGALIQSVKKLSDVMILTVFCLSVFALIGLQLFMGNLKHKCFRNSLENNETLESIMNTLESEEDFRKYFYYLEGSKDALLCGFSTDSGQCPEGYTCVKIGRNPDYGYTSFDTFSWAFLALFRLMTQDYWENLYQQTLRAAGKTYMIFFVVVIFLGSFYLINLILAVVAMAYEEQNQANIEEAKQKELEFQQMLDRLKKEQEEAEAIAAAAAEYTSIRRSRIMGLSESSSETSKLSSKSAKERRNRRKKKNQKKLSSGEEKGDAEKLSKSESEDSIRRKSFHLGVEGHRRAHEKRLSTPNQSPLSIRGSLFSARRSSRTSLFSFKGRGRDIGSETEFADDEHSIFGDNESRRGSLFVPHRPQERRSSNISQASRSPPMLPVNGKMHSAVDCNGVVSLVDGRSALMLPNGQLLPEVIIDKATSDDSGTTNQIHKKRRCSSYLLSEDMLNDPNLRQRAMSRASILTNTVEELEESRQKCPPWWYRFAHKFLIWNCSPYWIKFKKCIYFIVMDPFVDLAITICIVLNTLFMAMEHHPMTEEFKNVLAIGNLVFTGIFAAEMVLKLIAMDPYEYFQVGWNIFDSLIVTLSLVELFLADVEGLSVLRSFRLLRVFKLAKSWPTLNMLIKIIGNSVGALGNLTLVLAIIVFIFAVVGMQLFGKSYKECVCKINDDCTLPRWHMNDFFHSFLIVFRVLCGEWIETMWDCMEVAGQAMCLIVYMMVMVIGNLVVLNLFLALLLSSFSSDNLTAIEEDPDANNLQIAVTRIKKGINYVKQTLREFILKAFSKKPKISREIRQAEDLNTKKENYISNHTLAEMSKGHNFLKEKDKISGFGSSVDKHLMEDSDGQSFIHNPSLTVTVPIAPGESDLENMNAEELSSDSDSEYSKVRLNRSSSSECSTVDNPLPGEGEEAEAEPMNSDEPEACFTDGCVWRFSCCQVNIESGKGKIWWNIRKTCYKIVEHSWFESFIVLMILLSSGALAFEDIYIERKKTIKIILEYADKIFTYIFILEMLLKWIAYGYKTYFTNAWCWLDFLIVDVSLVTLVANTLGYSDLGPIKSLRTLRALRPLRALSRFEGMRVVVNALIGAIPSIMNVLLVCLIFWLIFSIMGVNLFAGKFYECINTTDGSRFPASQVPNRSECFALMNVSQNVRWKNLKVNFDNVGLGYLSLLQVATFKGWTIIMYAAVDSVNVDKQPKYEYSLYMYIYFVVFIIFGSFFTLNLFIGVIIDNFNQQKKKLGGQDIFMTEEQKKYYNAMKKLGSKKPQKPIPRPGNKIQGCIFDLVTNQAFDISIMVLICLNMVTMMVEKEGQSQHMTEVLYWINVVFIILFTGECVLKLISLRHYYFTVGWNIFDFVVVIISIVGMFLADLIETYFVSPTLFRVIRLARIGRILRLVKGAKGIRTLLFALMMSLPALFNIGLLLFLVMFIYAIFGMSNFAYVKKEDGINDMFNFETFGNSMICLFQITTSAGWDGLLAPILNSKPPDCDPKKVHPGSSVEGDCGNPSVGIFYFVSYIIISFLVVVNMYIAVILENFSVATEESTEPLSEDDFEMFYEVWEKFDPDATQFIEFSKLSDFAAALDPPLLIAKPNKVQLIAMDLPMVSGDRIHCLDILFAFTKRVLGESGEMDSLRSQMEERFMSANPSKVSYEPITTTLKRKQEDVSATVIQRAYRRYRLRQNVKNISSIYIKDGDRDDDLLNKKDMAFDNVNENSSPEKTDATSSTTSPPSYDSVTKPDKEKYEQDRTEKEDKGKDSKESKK

On to `CC[C@H](C)[C@@H]1NC(=O)[C@@H]2CSSC[C@@H]3NC(=O)[C@H](C(C)C)NC(=O)[C@H](CC(C)C)NC(=O)[C@H](CC(N)=O)NC(=O)[C@@H]4CCCN4C(=O)[C@H](CCCNC(=N)N)NC(=O)[C@H](CSSC[C@H](NC(=O)[C@H](CC(=O)O)NC(=O)[C@@H](N)CCCCN)C(=O)N[C@@H](CC(C)C)C(=O)NCC(=O)N[C@@H](Cc4ccccc4)C(=O)N[C@@H](CCSC)C(=O)N[C@@H](CCCNC(=N)N)C(=O)N[C@@H](CCCCN)C(=O)N2)NC(=O)[C@H](CSSC[C@@H](C(=O)N[C@@H](CCCCN)C(=O)N[C@@H](Cc2ccc(O)cc2)C(=O)N[C@H](C(=O)N[C@@H](Cc2ccccc2)C(N)=O)C(C)C)NC(=O)[C@H](Cc2c[nH]c4ccccc24)NC(=O)[C@H](CCCCN)NC(=O)[C@H](Cc2cnc[nH]2)NC(=O)[C@H]([C@@H](C)O)NC(=O)[C@H](CCCNC(=N)N)NC(=O)[C@H](CO)NC3=O)NC(=O)[C@H](CCCCN)NC(=O)[C@H](CC(=O)O)NC(=O)[C@H](CC(N)=O)NC(=O)[C@H](CC(=O)O)NC(=O)[C@@H]2CCCN2C1=O` [SEQ ID NO: 36], for which the IC50 on hNav1.7 (IonWorks Quattro, clamped to −110 mV, depolarized to −10 mV, 5 min after compound, n=2, read-out: IWQ Use Nav1.7) was determined as 110 nM; at hNav1.5 (setting [1]), 8350 nM; on hNav1.3 (setting [1]), 100 nM.

`CC[C@H](C)[C@@H]1NC(=O)[C@@H]2CSSC[C@@H]3NC(=O)[C@H](C(C)C)NC(=O)[C@H](CC(C)C)NC(=O)[C@H](CC(N)=O)NC(=O)[C@@H]4CCCN4C(=O)[C@H](CCCNC(=N)N)NC(=O)[C@H](CSSC[C@H](NC(=O)[C@@H](N)CC(=O)O)C(=O)N[C@@H](CC(C)C)C(=O)NCC(=O)N[C@@H](Cc4ccccc4)C(=O)N[C@@H](CCSC)C(=O)N[C@@H](CCCNC(=N)N)C(=O)N[C@@H](CCCCN)C(=O)N2)NC(=O)[C@H](CSSC[C@@H](C(=O)N[C@@H](CCCCN)C(=O)N[C@@H](Cc2c[nH]c4ccccc24)C(=O)N[C@H](C(=O)N[C@@H](Cc2ccccc2)C(N)=O)C(C)C)NC(=O)[C@H](Cc2c[nH]c4ccccc24)NC(=O)[C@H](CCCCN)NC(=O)[C@H](Cc2c[nH]cn2)NC(=O)[C@H](CC(C)C)NC(=O)[C@H](CCCNC(=N)N)NC(=O)[C@H](CO)NC3=O)NC(=O)[C@H](CCCCN)NC(=O)[C@H](CC(=O)O)NC(=O)[C@H](CC(N)=O)NC(=O)[C@H](CC(=O)O)NC(=O)[C@@H]2CCCN2C1=O` [compound 446] (H-DCLGFMRKCIPDNDKCCRPNLVCSRLHKWCKWVF-NH2; disulfide 2-17, 9-23, 16-30): the IC50 at hNav1.7 (setting [2]) was 40 nM; on hNav1.5 (use-dependent block, hNav1.5), more than 5000 nM; at hNav1.3 (use-dependent block, hNav1.3), 60 nM.

For the compound `CC[C@H](C)[C@@H]1NC(=O)[C@@H]2CSSC[C@@H]3NC(=O)[C@H](C(C)C)NC(=O)[C@H](CC(C)C)NC(=O)[C@H](CC(N)=O)NC(=O)[C@@H]4CCCN4C(=O)[C@H](CCCNC(=N)N)NC(=O)[C@H](CSSC[C@H](NC(=O)[C@@H](N)CC(=O)O)C(=O)N[C@@H](CC(C)C)C(=O)NCC(=O)N[C@@H](Cc4ccccc4)C(=O)N[C@@H](CCSC)C(=O)N[C@@H](CCCNC(=N)N)C(=O)N[C@@H](CCCCN)C(=O)N2)NC(=O)[C@H](CSSC[C@@H](C(=O)N[C@@H](CCCCN)C(=O)N[C@@H](Cc2ccc(O)cc2)C(=O)N[C@H](C(=O)N[C@@H](Cc2ccccc2)C(N)=O)C(C)C)NC(=O)[C@H](Cc2c[nH]c4ccccc24)NC(=O)[C@H](CCCCN)NC(=O)[C@H](C)NC(=O)[C@H]([C@@H](C)O)NC(=O)[C@H](CCCNC(=N)N)NC(=O)[C@H](CO)NC3=O)NC(=O)[C@H](CCCCN)NC(=O)[C@H](CC(=O)O)NC(=O)[C@H](CC(N)=O)NC(=O)[C@H](CC(=O)O)NC(=O)[C@@H]2CCCN2C1=O` [compound 11] (H-DCLGFMRKCIPDNDKCCRPNLVCSRTAKWCKYVF-NH2; disulfide 2-17, 9-23, 16-30), the IC50 on hNav1.7 turned out to be 950 nM; at hNav1.5 (Table 23, use, […]) it was 14700 nM; at hNav1.3 (Table 23, use, […]), 1150 nM.

For `CC[C@H](C)[C@@H]1NC(=O)[C@@H]2CSSC[C@@H]3NC(=O)[C@H](C(C)C)NC(=O)[C@H](CC(C)C)NC(=O)[C@H](CC(N)=O)NC(=O)[C@@H]4CCCN4C(=O)[C@H](CCCNC(=N)N)NC(=O)[C@H](CSSC[C@H](NC(=O)[C@@H](N)CC(=O)O)C(=O)N[C@@H](CC(C)C)C(=O)NCC(=O)N[C@@H](Cc4ccccc4)C(=O)N[C@@H](CCSC)C(=O)N[C@@H](CCCNC(=N)N)C(=O)N[C@@H](CCCCN)C(=O)N2)NC(=O)[C@H](CSSC[C@@H](C(=O)N[C@@H](CCCCN)C(=O)N[C@@H](Cc2ccc(O)cc2)C(=O)N[C@H](C(=O)N[C@@H](Cc2ccccc2)C(N)=O)C(C)C)NC(=O)[C@H](Cc2c[nH]c4ccccc24)NC(=O)[C@H](C)NC(=O)[C@H](Cc2cnc[nH]2)NC(=O)[C@H]([C@@H](C)O)NC(=O)[C@H](CCCNC(=N)N)NC(=O)[C@H](CO)NC3=O)NC(=O)[C@H](CCCCN)NC(=O)[C@H](CC(=O)O)NC(=O)[C@H](CC(N)=O)NC(=O)[C@H](CC(=O)O)NC(=O)[C@@H]2CCCN2C1=O` [compound 12] (H-DCLGFMRKCIPDNDKCCRPNLVCSRTHAWCKYVF-NH2; disulfide 2-17, 9-23, 16-30), the IC50 was determined as 360 nM against hNav1.7; 17300 nM at hNav1.5 (Table 23, use, […]); 660 nM at hNav1.3 (Table 23, use, […]).

Turning to `CC[C@H](C)[C@@H]1NC(=O)[C@@H]2CSSC[C@@H]3NC(=O)[C@H](C(C)C)NC(=O)[C@H](CC(C)C)NC(=O)[C@H](CC(N)=O)NC(=O)[C@@H]4CCCN4C(=O)[C@H](CCCNC(=N)N)NC(=O)[C@H](CSSC[C@H](NC(=O)[C@@H](N)CC(=O)O)C(=O)N[C@@H](CC(C)C)C(=O)NCC(=O)N[C@@H](Cc4ccccc4)C(=O)N[C@@H](CCSC)C(=O)N[C@@H](CCCNC(=N)N)C(=O)N[C@@H](CCCCN)C(=O)N2)NC(=O)[C@H](CSSC[C@@H](C(=O)N[C@@H](CCCCN)C(=O)N[C@@H](Cc2ccc(O)cc2)C(=O)N[C@H](C(=O)N[C@@H](Cc2ccccc2)C(N)=O)C(C)C)NC(=O)[C@H](Cc2c[nH]c4ccccc24)NC(=O)[C@H](CCCCN)NC(=O)[C@H](Cc2cnc[nH]2)NC(=O)[C@H]([C@@H](C)O)NC(=O)[C@H](CCCNC(=N)N)NC(=O)[C@H](CO)NC3=O)NC(=O)[C@H](C)NC(=O)[C@H](CC(=O)O)NC(=O)[C@H](CC(N)=O)NC(=O)[C@H](CC(=O)O)NC(=O)[C@@H]2CCCN2C1=O` [compound 6] (H-DCLGFMRKCIPDNDACCRPNLVCSRTHKWCKYVF-NH2; disulfide 2-17, 9-23, 16-30), the IC50 on hNav1.7 (IonWorks Quattro, Use, read-out: IWQ Use Nav1.7) was 220 nM; on hNav1.5 (Use) it was 9640 nM; at hNav1.3 (Use) it was 190 nM.

As to `CC[C@H](C)[C@@H]1NC(=O)[C@@H]2CSSC[C@@H]3NC(=O)[C@H](C(C)C)NC(=O)[C@H](CC(C)C)NC(=O)[C@H](CC(N)=O)NC(=O)[C@@H]4CCCN4C(=O)[C@H](CCCNC(=N)N)NC(=O)[C@H](CSSC[C@H](NC(=O)[C@@H](N)CC(=O)O)C(=O)N[C@@H](CC(C)C)C(=O)NCC(=O)N[C@@H](C)C(=O)N[C@@H](CCSC)C(=O)N[C@@H](CCCNC(=N)N)C(=O)N[C@@H](CCCCN)C(=O)N2)NC(=O)[C@H](CSSC[C@@H](C(=O)N[C@@H](CCCCN)C(=O)N[C@@H](Cc2c[nH]c4ccccc24)C(=O)N[C@H](C(=O)N[C@@H](Cc2ccccc2)C(N)=O)C(C)C)NC(=O)[C@H](Cc2c[nH]c4ccccc24)NC(=O)[C@H](CCCCN)NC(=O)[C@H](Cc2c[nH]cn2)NC(=O)[C@H]([C@@H](C)O)NC(=O)[C@H](CCCNC(=N)N)NC(=O)[C@H](CO)NC3=O)NC(=O)[C@H](CCCCN)NC(=O)[C@H](CC(=O)O)NC(=O)[C@H](CC(N)=O)NC(=O)[C@H](CC(=O)O)NC(=O)[C@@H]2CCCN2C1=O` [compound 253] (H-DCLGAMRKCIPDNDKCCRPNLVCSRTHKWCKWVF-NH2; disulfide 2-17, 9-23, 16-30), the IC50 at hNav1.7 (setting [2]) was 270 nM; at hNav1.5 (use-dependent block, hNav1.5), 5000 nM; on hNav1.3 (use-dependent block, hNav1.3), 530 nM.

`CC[C@H](C)[C@@H]1NC(=O)[C@@H]2CSSC[C@@H]3NC(=O)[C@H](C(C)C)NC(=O)[C@H](CC(C)C)NC(=O)[C@H](CC(N)=O)NC(=O)[C@@H]4CCCN4C(=O)[C@H](CCCNC(=N)N)NC(=O)[C@H](CSSC[C@H](NC(=O)[C@@H](N)CC(=O)O)C(=O)N[C@@H](CC(C)C)C(=O)NCC(=O)N[C@@H](C)C(=O)N[C@@H](CCSC)C(=O)N[C@@H](CCCNC(=N)N)C(=O)N[C@@H](CCCCN)C(=O)N2)NC(=O)[C@H](CSSC[C@@H](C(=O)N[C@@H](CCCCN)C(=O)N[C@@H](Cc2cn(C)c4ccccc24)C(=O)N[C@H](C(=O)N[C@@H](Cc2ccccc2)C(N)=O)C(C)C)NC(=O)[C@H](Cc2c[nH]c4ccccc24)NC(=O)[C@H](CCCCN)NC(=O)[C@H](Cc2c[nH]cn2)NC(=O)[C@H]([C@@H](C)O)NC(=O)[C@H](CCCNC(=N)N)NC(=O)[C@H](CO)NC3=O)NC(=O)[C@H](CCCCN)NC(=O)[C@H](CC(=O)O)NC(=O)[C@H](CC(N)=O)NC(=O)[C@H](CC(=O)O)NC(=O)[C@@H]2CCCN2C1=O` [compound 692] (H-DCLGAMRKCIPDNDKCCRPNLVCSRTHKWCK[Trp(1-Me)]VF-NH2; disulfide 2-17, 9-23, 16-30): the IC50 on hNav1.7 (IonWorks Quattro, use-dependent protocol, hNav1.7, read-out: IWQ Use Nav1.7) was 180 nM; on hNav1.5 (use-dependent protocol, hNav1.5), more than 5000 nM; on hNav1.3 (use-dependent protocol, hNav1.3), 630 nM.
